From patent publication US20120149708A1, “MODULATORS OF VIRAL TRANSCRIPTION, AND METHODS AND COMPOSITIONS THEREWITH” (George Mason University, priority 2010, published 2012)

Columns and labels:
[1] = system: HIV-1 transcription; assay: HIV-1 transcription inhibition in T-cells and monocytes; assay type: cell-based; details: T-cells versus monocytes
[2] = system: HIV-1; details: T-cells, monocytes, and peripheral blood mononuclear cells; cited from earlier work
[3] = system: U937 cells (uninfected); assay: Cell viability by trypan blue exclusion, 48 hours; assay type: cell-based; details: Homo sapiens, U-937, 50 nM, 48 hrs, read-out: Inhibition Percentage U937
Method: (§1) TZM-bl cell lines were grown in Dulbecco's modified Eagle's medium supplemented with fetal bovine serum (FBS) (10%, v/v), 2 mM L-glutamine, and antibiotics (penicillin 100 U/ml, streptomycin […]) (cDMEM). HCT116 WT and HCT116 Dicer−/−cell lines were grown in McCoy's medium supplemented with FBS (10%, v/v), 2mM L-glutamine, and antibiotics (penicillin 100 U/ml, streptomycin […]). CEM, ACH2, Jurkat and U937 cells were grown in RPMI 1640 supplemented with FBS, L-glutamine, and antibiotics (penicillin 100 U/ml, streptomycin […]). All cell lines were maintained at 37° C. in 5% (v/v) CO2.
(§2) ACH2 cells are infected with HIV-1; TZM-bl cells contain a stably-integrated HIV-1 LTR-Luciferase reporter; CEM, Jurkat, and U937 cells are uninfected. Transfections were carried out using Attractene (Qiagen) lipid reagent. Cells were cultured to confluence and pelleted at 4° C. for 15 min at 3,000 rpm. The cell pellets were washed twice with 25 ml of phosphate-buffered saline (PBS) with Ca2+ and Mg2+ (Quality Biological) and centrifuged once more. Cell pellets were resuspended in lysis buffer (50 mM Tris-HCl, pH 7.5, 120 mM NaCl, 5 mM EDTA, 0.5%, v/v, NP-40, 50 mM NaF, 0.2 mM Na3VO4, 1 mM DTT, one complete protease cocktail tablet/50 ml (Roche) and incubated on ice for 20 min, with gentle vortexing every 5 min. Cell lysates were transferred to eppendorf tubes and were centrifuged at 10,000 rpm for 10 min. Supernatants were transferred to a fresh tube where protein concentrations were determined using Bio-Rad protein assay (Bio-Rad, Hercules, Calif.).
(§3) In brief, the inhibition studies were carried out as follows. HIV-1 infected cells ACH2, J1.1, OM10.1, U1 and uninfected CEM, Jurkat T-cells, and U937 were cultured in media. The appropriate inhibitor was added at a concentration of 10 μM. Cells were treated for 48 hours and cell viability was determined using trypan blue exclusion method. Results of such a screen for 19 inhibitors is shown in Table 1 where percent dead cells are indicated each drug tested.
(§4) Again HIV-1 infected and uninfected cells were treated with eighteen Formula I compounds at a drug concentration of 50 nm. Forty-eight hours after treatment, cytotoxicity was determined by trypan blue dye exclusion. Percent inhibition was calculated after obtaining the cell density for each well of the tissue culture plate at the end of 48 hrs.

[4] = system: CEM cells (uninfected); assay: Cell viability by trypan blue exclusion, 48 hours; assay type: cell-based; details: 50 nM, 48 hrs
Method: as §1, §2, §3, §4

[5] = system: HIV-1 infected and uninfected cells; assay: Classification of inhibitors by effect on viability of infected versus uninfected cells; assay type: cell-based; details: 50 nM; high, moderate or poor
Description: The inhibitors were classified into three categories: high, moderate or poor, according to their effect on cellular viability in both HIV-1 infected and uninfected cells. Among the compounds tested in this study, CR8, a purine analog bearing a 2-pyridyl group para to the phenyl ring position 6 of the purine was the most promising drug candidate that killed HIV-1 infected cells, while having little or no effect on the death of uninfected cells.

[6] = system: uninfected CEM, Jurkat T-cells, and U937 cells; assay: MTT assay, uninfected cells; assay type: cell-based; details: 50 nm and 10 μM
Method: (§5) FIGS. 1 and 2 show screening results of CR8 derivatives on Tat-dependent transcription HIV-1 LTR. […] TZM-bl cells were transfected with 1 ug of Tat and treated the next day with DMSO, or the indicated CR8 derivative compounds at 50 nm. 48 hrs-post drug treatment, luciferase activity of the firefly luciferase was measured with the BrightGlo Luciferase Assay and luminescence was read from a 96 well plate on an EG&G Berthold luminometer. Assays were performed in triplicate, average and standard deviations are shown.
(§6) Quantitative MTT assays were performed (FIG. 2), to further validate the cell growth inhibitory activity of certain Formula I compounds. In this study, cultured, infected ACH2, J1.1, OM10.1, U1 and uninfected CEM, Jurkat T-cells, and U937 cells were brought in contact with Formula I compounds CR8, MRT-033, and BJFP1154 (CR8#13). Cell growth inhibition study was performed at two different concentrations of the inventive compounds, a low concentration of 50 nm, and high concentration of 10 μM.

[7] = system: J1.1 cells (HIV-1 infected); assay: Cell viability by trypan blue exclusion, 48 hours; assay type: cell-based; details: 50 nM, 48 hrs, HIV-1 infected
Method: as §3, §4

[8] = system: U1 cells (HIV-1 infected); assay: Cell viability by trypan blue exclusion, 48 hours; assay type: cell-based; details: 50 nM, 48 hrs, HIV-1 infected
Method: as §3, §4

[9] = system: OM10.1 cells (HIV-1 infected); assay: Cell viability by trypan blue exclusion, 48 hours; assay type: cell-based; details: Human immunodeficiency virus 1; 50 nM, 48 hrs, HIV-1 infected; read-out: Inhibition Percentage OM10.1
Method: as §3, §4

[10] = system: infected ACH2, J1.1, OM10.1, U1 cells; assay: MTT assay, infected cells; assay type: cell-based; details: 50 nm and 10 μM
Method: as §5, §6

[11] = system: Jurkat T-cells (uninfected); assay: Cell viability by trypan blue exclusion, 48 hours; assay type: cell-based; details: Homo sapiens, Jurkat, 50 nM, 48 hrs, read-out: Inhibition Percentage Jurkat
Method: as §1, with “CO2. […]” for “CO2.”
as §3, §4

[12] = system: ACH2 cells (HIV-1 infected); assay: Cell viability by trypan blue exclusion, 48 hours; assay type: cell-based; details: Human immunodeficiency virus 1, ACH-2, 48 h, read-out: Inhibition Percentage ACH2, 50 nM, 48 hrs, HIV-1 infected
Method: as §1, with “CO2. […]” for “CO2.”
as §3, §4

[13] = system: HIV-1 (pNL4.3) in promonocytic U937 cells; assay: Reverse transcriptase assay of supernatants, pNL4.3 electroporated cells; assay type: cell-based; details: Flavopiridol 200 nm, CR8 100 nm, CR8#13 50 nm, 48 hours
Method: (§7) Jurkat T-cell and promonocytic U937 cells were electroporated with 5 μg pNL4.3 followed the next day by drug treatment of Flavopiridol (200 nm), CR8 (100 nm) or CR8#13 (50 nm). Cell supernatants were collected at 48 hours post drug treatment. Viral supernatants (10 μl) were incubated in a 96-well plate with reverse transcriptase (RT) reaction mixture overnight at 37° C., and 10 μl of the reaction mix was spotted on a DEAE Filtermat paper, washed with 5% (w/v) Na2HPO4 followed by water wash, and then dried completely. RT activity was measured in a Betaplate counter.
(§8) For electroporations, Jurkat and U937 cells were resuspended at 3 million cells in 250 μl of RPMI. Five microgram of pNL4-3 was then added to the cell suspension. Cells were pulsed a single time at 210V, 800 μF, and low resistance. Electroporated cells were immediately transferred to RPMI-1640 with L-glutamine and Penicillin/Streptomycin with 10% (v/v) FBS and plated in 6 well plates. Twenty four hours-post electroporation, cells were treated with drugs for additional 48 hrs and harvested for RT analysis. RT assays were performed as described in ((Guendel et al. 2009; Easley et al. 2010).
(§9) The present inventors examined whether Formula I, or Formula II compounds were effective inhibiting viral transcription in cell lines infected with an HIV-1 construct. Thus, Jurkat T-cells and promonocytic U937 cells were transfected with pNL4.3 and then treated with Flavopiridol, CR8 and CR8#13. Similar to monocytes, the Dicer levels are low to undetectable in promonocytic cells (FIG. 6) and was detectable only when these cells had differentiated into macrophages with PMA treatment.
(§10) Following drug treatment cell supernatants were collected and processed for exogenous reverse transcriptase (RT) levels.

[14] = system: HIV-1 (pNL4.3) in Jurkat T-cells; assay: as above; assay type: cell-based; details: Flavopiridol 200 nm, CR8 100 nm, CR8#13 50 nm, 48 hours
Method: as §7, §8, §9, §10

[15] = system: 3′TAR and 5′TAR microRNA; assay: Poly-A RT-PCR of TAR microRNA in TZM-bl cells with or without TSA; assay type: cell-based, HIV-1
Method: RNA was extracted 48 hrs-post drug treatment. 500 ng of RNA from the microRNA-enriched fraction was used to generate cDNA using the Quantimir kit (SBI) in order to poly adenylate small RNA species. RT reactions were performed followed by PCR in which a universal reverse primer was provided by the manufacturer. Specific microRNA forward primers are identical in sequence to the microRNA of interest. PCR products corresponding to the amplified microRNAs were separated in a 3.5% (w/v) agarose gel. The PCR products are at around 67 bp as compared with the Fermentas 1 kb DNA Plus Ladder. Increased levels of 3′TAR microRNA were produced post CR8#13 treatment.
For poly-A RT-PCR detection of microRNAs, 500 ng of RNA from the microRNA-enriched fraction was used to generate cDNA using the Quantimir kit (SBI) according to the manufacturer's protocol. Briefly, small RNA species are poly-adenylated and then reverse transcription reactions are performed with a company-provided RT primer. For PCR, a universal reverse primer is provided by the manufacturer. Specific microRNA forward primers are identical in sequence to the microRNA of interest. PCR products corresponding to the amplified microRNAs were separated in a 3.5% (w/v) agarose gel and quantified using the Kodak 1D software.
To determine whether the cdk inhibitors Flavopiridol, CR8, and CR8#13 increased levels of TAR microRNA in the TSA-treated and control TZM-bl cells total RNA was extracted from both TSA treated and control cells treated with Flavopiridol, CR8, and CR8#13 and processed for RT-PCR detection of microRNAs, specifically, for the presence of 3′TAR and 5′TAR molecules.

[16] = system: HIV-1 LTR-CAT reporter; assay: CAT assay of Tat-mediated transactivation in HCT116 WT and Dicer-/- cells; assay type: cell-based; details: HCT116 WT (Dicer) versus Dicer-/-; 48 hrs; Flavopiridol, CR8#13, F07#13 100 nm, 9AA 1000 nm
Method: Six hours later, the transfected cells were treated with DMSO, Flavopirodol (100 nm), CR8#13 (100 nm), F07#13 (100 nm), and 9AA (1000 nm). Treated cells were incubated in complete DMEM for 48 hrs at 37° C. Cells were harvested and cell extracts were used for CAT analysis. One tenth the amount of HCT116 Dicer−/−extract compared to HCT116 WT was used for CAT analysis. […] The corresponding bar graphs in A and B show values that represent the percentage of conversion of the [14C] chloramphenicol substrate in the CAT assay.
Various cells lines were transfected with the HIV-1 LTRCAT plasmid and pc-Tat to initiate the LTR transcription, and subsequently subjected to various drug treatments. After 48 hrs, cells were lysed and CAT assays were performed as previously described (Guendel et al, 2009; Van Duyne et al, 2008; Easley et al, 2010).
To evaluate the role on microRNA machinery in inhibition of viral transcription activity, HCT116 colon carcinoma cell lines that either contained a WT Dicer (HCT116 WT) or lacked the Dicer protein (HCT116 Dicer-−/−) were first transfected with the HIV-1 LTR-CAT reporter construct. The HIV-1 LTR transcription was activated with pc-Tat and following incubation for 6 hours was treated with DMSO (negative control), Flavopiridol (positive control), CR8#13, F07#13, or 9AA.
Cells were harvested 48 hrs-post treatment and processed for CAT assays (FIGS. 3A and B). […] Based on this observation the inventors hypothesize that the microRNA machinery, Dicer and Drosha, plays an inhibitory role in HIV-1 transcription.

Q: Which inhibition of transcription [1] does the source give for `CC[C@@H](CO)Nc1nc(NCc2ccc(-c3ccccn3)cc2)c2ncn(C(C)C)c2n1` [Cyc202] here?
A: Its inhibition of transcription is “effectively inhibited transcription in T-cells but not in monocytes”.

Q: And the “inhibition of HIV-1 (IC50)” value [2]?
A: The value was “low IC50”.

Q: With `CC[C@H](CO)Nc1nc(NCc2ccc(-c3ccccn3)cc2)n2ncc(C(C)C)c2n1.O=C(O)/C=C/C(=O)O` [MRT-033, R-2-(8-isopropyl-4-(4-(pyridine-2-yl)benzylamino)pyrazolo[1,5-α]-1,3,5-triazine-2-ylamino)butan-1-ol] as the compound, how does the inhibition at 0.05 µM [3] read?
A: The inhibition at 0.05 µM was 90%.

Q: And the “Inhibition Percentage CEM” value [4]?
A: The value was “+ (~25%)”.

Q: And the Selectivity [5]?
A: Its Selectivity is “High”.

Q: And the “cell inhibition of uninfected cells (MTT)” value [6]?
A: The value was “some cell inhibition activity of uninfected cells”.

Q: What about the “Inhibition Percentage J1.1” value [7] of the same compound?
A: The value was “++ (~50%)”.

Q: What about the “Inhibition Percentage U1” value [8] of the same compound?
A: The value was “++ (~50%)”.

Q: What about the inhibition at 0.05 µM [9] of the same compound?
A: The inhibition at 0.05 µM was 75%.

Q: And the “cell killing of infected cells (MTT)” value [10]?
A: Its value is “significant cell killing of infected cells over uninfected cells”.

Q: What about the inhibition at 0.05 µM [11] of the same compound?
A: The inhibition at 0.05 µM was 50%.

Q: And the inhibition at 0.05 µM [12]?
A: Its inhibition at 0.05 µM is 90%.

Q: What does the source list for `CN1CC[C@H](c2c(O)cc(O)c3c(=O)cc(-c4ccccc4Cl)oc23)[C@H](O)C1` [Flavopiridol]?
A: RT levels in supernatant [13]: able to decrease RT levels in both cell lines; RT levels in supernatant [14]: able to decrease RT levels in both cell lines; 3′ and 5′ TAR microRNA amount ([15]; TZM-bl cells treated with TSA for 7 days, then drug): higher amounts of both 3′ and 5′ TAR microRNA; 3′ TAR microRNA amount ([15]; non-TSA treated TZM-bl cells, Flavopiridol 50 nm, CR8 100 nm, CR8#13 100 nm): significantly increased amount of the 3′ TAR microRNA; inhibition of viral transcription (CAT) [16]: inhibited viral transcription significantly better in cells that contained Dicer
